From ChEMBL document CHEMBL3885861, “Open TG-GATES”

Organism: Rattus norvegicus
Experiment: Open TG-GATES - Regimen: Daily Repeat
Assay type: toxicity, organism-based, Sprague-Dawley
Set-up: regimen Daily Repeat, gender Male, age 6 weeks
Settings: in vivo, po, 1000 mg/kg, route gavage, dose level High; for APTT / Bas / Eos / Fbg / Hb / Ht / Lym / MCH / MCHC / MCV / Mono / Neu / PT / Plat / RBC / Ret / WBC: tissue Blood; for KIDNEY_L / KIDNEY_R / KIDNEY_TOTAL: tissue Kidney; for LIVER: tissue Liver; for A/G / ALP / ALT / AST / BUN / CRE / Ca / Cl / DBIL / GLC / IP / K / LDH / Na / PL / RALB / TBIL / TC / TG / TP / gamma-GTP: tissue Plasma

SMILES: CC(S)C(=O)NCC(=O)O (configuration not stated) [TIOPRONIN]
- TERMINAL_BW (72 h, time 3 day): 223.7 g
- APTT (72 h, time 3 day): 23.7 s
- Bas (72 h, time 3 day): 0%
- Eos (72 h, time 3 day): 1.2%
- Fbg (72 h, time 3 day): 288 mg/dL
- Hb (72 h, time 3 day): 13 g/dL
- Ht (72 h, time 3 day): 39.2%
- Lym (72 h, time 3 day): 73.8%
- MCH (72 h, time 3 day): 20.8 pg
- MCHC (72 h, time 3 day): 33.2%
- MCV (72 h, time 3 day): 62.7 fL
- Mono (72 h, time 3 day): 3.6%
- Neu (72 h, time 3 day): 20.8%
- PT (72 h, time 3 day): 15.8 s
- Plat (72 h, time 3 day): 113.1 x10_4/uL
- RBC (72 h, time 3 day): 626.6 x10_4/ul
- Ret (72 h, time 3 day): 6.9%
- WBC (72 h, time 3 day): 105.8 x10_2/uL
- KIDNEY_L (72 h, time 3 day): 1 g
- KIDNEY_R (72 h, time 3 day): 1 g
- KIDNEY_TOTAL (72 h, time 3 day): 2 g
- LIVER (72 h, time 3 day): 10.7 g
- A/G (72 h, time 3 day): 1.3
- ALP (72 h, time 3 day): 1581.6 IU/L
- ALT (72 h, time 3 day): 49.2 IU/L
- AST (72 h, time 3 day): 77.2 IU/L
- BUN (72 h, time 3 day): 15.2 mg/dL
- CRE (72 h, time 3 day): 0.2 mg/dL
- Ca (72 h, time 3 day): 10.7 mg/dL
- Cl (72 h, time 3 day): 105.8 meq/L
- DBIL (72 h, time 3 day): 0.002 mg/dL
- GLC (72 h, time 3 day): 186.2 mg/dL
- IP (72 h, time 3 day): 7.8 mg/dL
- K (72 h, time 3 day): 4.4 meq/L
- LDH (72 h, time 3 day): 173.4 IU/L
- Na (72 h, time 3 day): 140.8 meq/L
- PL (72 h, time 3 day): 131 mg/dL
- RALB (72 h, time 3 day): 2.9 g/dL
- TBIL (72 h, time 3 day): 0.014 mg/dL
- TC (72 h, time 3 day): 68.6 mg/dL
- TG (72 h, time 3 day): 83.4 mg/dL
- TP (72 h, time 3 day): 5.2 g/dL
- gamma-GTP (72 h, time 3 day): 1.8 IU/L
- TERMINAL_BW ([…], time 7 day): 254.3 g
- TERMINAL_BW ([…], time 14 day): 296.9 g
- TERMINAL_BW ([…], time 28 day): 364.7 g
- APTT ([…], time 7 day): 21.9 s
- Bas ([…], time 7 day): 0%
- Eos ([…], time 7 day): 1%
- Fbg ([…], time 7 day): 297 mg/dL
- Hb ([…], time 7 day): 13.4 g/dL
- Ht ([…], time 7 day): 39.6%
- Lym ([…], time 7 day): 77%
- MCH ([…], time 7 day): 21.4 pg
- MCHC ([…], time 7 day): 33.8%
- MCV ([…], time 7 day): 63.3 fL
- Mono ([…], time 7 day): 2.6%
- Neu ([…], time 7 day): 18.8%
- PT ([…], time 7 day): 15.4 s
- Plat ([…], time 7 day): 122.7 x10_4/uL
- RBC ([…], time 7 day): 626 x10_4/ul
- Ret ([…], time 7 day): 6.8%
- WBC ([…], time 7 day): 115.2 x10_2/uL
- APTT ([…], time 14 day): 24.7 s
- Bas ([…], time 14 day): 0%
- Eos ([…], time 14 day): 0.8%
- Fbg ([…], time 14 day): 266.2 mg/dL
- Hb ([…], time 14 day): 13.9 g/dL
- Ht ([…], time 14 day): 41.1%
- Lym ([…], time 14 day): 81.2%
- MCH ([…], time 14 day): 20.8 pg
- MCHC ([…], time 14 day): 33.7%
- MCV ([…], time 14 day): 61.7 fL
- Mono ([…], time 14 day): 2.4%
- Neu ([…], time 14 day): 14.4%
- PT ([…], time 14 day): 15.9 s
- Plat ([…], time 14 day): 124 x10_4/uL
- RBC ([…], time 14 day): 666.8 x10_4/ul
- Ret ([…], time 14 day): 5.2%
- WBC ([…], time 14 day): 129.5 x10_2/uL
- APTT ([…], time 28 day): 24.2 s
- Bas ([…], time 28 day): 0%
- Eos ([…], time 28 day): 1.2%
- Fbg ([…], time 28 day): 300.8 mg/dL
- Hb ([…], time 28 day): 15 g/dL
- Ht ([…], time 28 day): 42.6%
- Lym ([…], time 28 day): 79%
- MCH ([…], time 28 day): 19.2 pg
- MCHC ([…], time 28 day): 35.3%
- MCV ([…], time 28 day): 54.5 fL
- Mono ([…], time 28 day): 1.8%
- Neu ([…], time 28 day): 16.2%
- PT ([…], time 28 day): 16.1 s
- Plat ([…], time 28 day): 98.3 x10_4/uL
- RBC ([…], time 28 day): 781.4 x10_4/ul
- Ret ([…], time 28 day): 3.1%
- WBC ([…], time 28 day): 124 x10_2/uL
- KIDNEY_L ([…], time 7 day): 1.1 g
- KIDNEY_R ([…], time 7 day): 1.2 g
- KIDNEY_TOTAL ([…], time 7 day): 2.3 g
- KIDNEY_L ([…], time 14 day): 1.3 g
- KIDNEY_R ([…], time 14 day): 1.3 g
- KIDNEY_TOTAL ([…], time 14 day): 2.6 g
- KIDNEY_L ([…], time 28 day): 1.5 g
- KIDNEY_R ([…], time 28 day): 1.5 g
- KIDNEY_TOTAL ([…], time 28 day): 3 g
- LIVER ([…], time 7 day): 12.3 g
- LIVER ([…], time 14 day): 13.3 g
- LIVER ([…], time 28 day): 15.3 g
- A/G ([…], time 7 day): 1.2
- ALP ([…], time 7 day): 1407 IU/L
- ALT ([…], time 7 day): 45 IU/L
- AST ([…], time 7 day): 67.8 IU/L
- BUN ([…], time 7 day): 18.4 mg/dL
- CRE ([…], time 7 day): 0.1 mg/dL
- Ca ([…], time 7 day): 10.8 mg/dL
- Cl ([…], time 7 day): 105.4 meq/L
- DBIL ([…], time 7 day): 0 mg/dL
- GLC ([…], time 7 day): 177.2 mg/dL
- IP ([…], time 7 day): 7.9 mg/dL
- K ([…], time 7 day): 4.6 meq/L
- LDH ([…], time 7 day): 181.4 IU/L
- Na ([…], time 7 day): 140 meq/L
- PL ([…], time 7 day): 132.6 mg/dL
- RALB ([…], time 7 day): 2.9 g/dL
- TBIL ([…], time 7 day): 0.006 mg/dL
- TC ([…], time 7 day): 67.8 mg/dL
- TG ([…], time 7 day): 90.8 mg/dL
- TP ([…], time 7 day): 5.2 g/dL
- gamma-GTP ([…], time 7 day): 1.8 IU/L
- A/G ([…], time 14 day): 1.3
- ALP ([…], time 14 day): 1175.6 IU/L
- ALT ([…], time 14 day): 41.6 IU/L
- AST ([…], time 14 day): 70.4 IU/L
- BUN ([…], time 14 day): 23 mg/dL
- CRE ([…], time 14 day): 0.2 mg/dL
- Ca ([…], time 14 day): 10.5 mg/dL
- Cl ([…], time 14 day): 105 meq/L
- DBIL ([…], time 14 day): 0 mg/dL
- GLC ([…], time 14 day): 182.6 mg/dL
- IP ([…], time 14 day): 7 mg/dL
- K ([…], time 14 day): 4.4 meq/L
- LDH ([…], time 14 day): 182.6 IU/L
- Na ([…], time 14 day): 140.2 meq/L
- PL ([…], time 14 day): 125.4 mg/dL
- RALB ([…], time 14 day): 3.1 g/dL
- TBIL ([…], time 14 day): 0.01 mg/dL
- TC ([…], time 14 day): 60 mg/dL
- TG ([…], time 14 day): 120.2 mg/dL
- TP ([…], time 14 day): 5.6 g/dL
- gamma-GTP ([…], time 14 day): 2 IU/L
- A/G ([…], time 28 day): 1.2
- ALP ([…], time 28 day): 1066 IU/L
- ALT ([…], time 28 day): 49.2 IU/L
- AST ([…], time 28 day): 71.4 IU/L
- BUN ([…], time 28 day): 17 mg/dL
- CRE ([…], time 28 day): 0.2 mg/dL
- Ca ([…], time 28 day): 10.9 mg/dL
- Cl ([…], time 28 day): 104.2 meq/L
- DBIL ([…], time 28 day): 0 mg/dL
- GLC ([…], time 28 day): 180 mg/dL
- IP ([…], time 28 day): 7.5 mg/dL
- K ([…], time 28 day): 4 meq/L
- LDH ([…], time 28 day): 154.6 IU/L
- Na ([…], time 28 day): 142.6 meq/L
- PL ([…], time 28 day): 135 mg/dL
- RALB ([…], time 28 day): 3.2 g/dL
- TBIL ([…], time 28 day): 0.03 mg/dL
- TC ([…], time 28 day): 63 mg/dL
- TG ([…], time 28 day): 106.2 mg/dL
- TP ([…], time 28 day): 5.8 g/dL
- gamma-GTP ([…], time 28 day): 2 IU/L
